Assays:
[1] = test system: Escherichia coli (E. coli) C600; assay: Minimum inhibitory concentration (MIC) assay in LB, 96-well, OD595; assay type: cell-based; details: 10^5 CFU/mL
Experimental: (§1) In exemplary procedures, Escherichia coli (E. coli) C600, Staphylococcus aureus (S. aureus) FRF1169, and multi-drug resistant strains E. coli 5327752, Klebsiella pneumoniae 5363271, and Providencia stuartii 5327311 were grown overnight at 37° C. under agitation (250 rpm) in Luria Bertani (LB, Difco) growth medium.
(§2) In exemplary procedures, the antimicrobial activity of the P(MAA-MBAA)-Cl nanoparticles was evaluated by determining the minimum inhibitory concentration (MIC) values for both E. coli and S. aureus. The MIC was defined as the lowest Cl concentration bound to the nanoparticles, or the NaOCl, at which no bacterial growth was visible following incubation with the respective bacteria. The stock solution of the P(MAA-MBAA)-Cl nanoparticles and NaOCl were each diluted in two-fold serial dilutions in a 96-well plate (Griener Bio-one) ranging from bound Cl concentrations of 10 to 0.08 mM (approximately corresponding to 0.8% P(MAA-MBAA)-Cl, w/v) in LB medium in a 96-well plate (Greiner Bio-one). Each well contained 10^5 colony-forming units (CFU)/mL of either E. coli or S. aureus, and bacteria were either treated with P(MAA-MBAA) nanoparticles or left untreated to serve as negative controls. The bacterial growth was monitored via absorbance measurements at OD595 utilizing a microplate reader (Synergy 2, BioTek instruments). All experiments were conducted in triplicate.

[2] = test system: Staphylococcus aureus (S. aureus) FRF1169; assay: as above; assay type: cell-based; details: 10^5 CFU/mL
Experimental: as §1, §2

[3] = test system: E. coli; assay: Bacterial killing / killing kinetics, viable cell count (CFU/mL); assay type: cell-based, Escherichia coli
Experimental: as §1
(§3) In exemplary procedures, overnight cultures of E. coli and S. aureus bacteria were each diluted in a fresh LB medium to obtain stock solutions with a working concentration of 10^5 CFU per mL. Next, E. coli and S. aureus bacteria were grown, […] with equivalent volumes of either NaOCl, P(MAA-MBAA) or P(MAA-MBAA)-Cl nanoparticles (0.2%, 0.75%, and 1% w/v) under continuous agitation (250 rpm). At various time points, 100 μL samples were taken from each tube and transferred into the wells of the first row in a 96-well plate that contained 20 μL of 0.1 N sodium thiosulfate. The latter was added to quench the remaining Cl on the P(MAA-MBAA)-Cl nanoparticles, thus halting the reaction. Serial dilutions were carried out, and the cells were spotted onto LB agar plates, followed by incubation at 37° C. for 20 hours. Cell growth was monitored and determined by viable cell count and expressed as CFU/mL.
(§4) Cultures of E. coli and S. aureus bacteria grown overnight were diluted in fresh twofold concentrated LB medium to obtain stock solutions with a final working concentration of 10^5 CFU/ml. Then, E. coli and S. aureus bacteria were grown with either P(MAA-MBAA)-Cl NPs or NaOCl under continuous agitation (250 rpm). Bacteria grown with distilled water or P(MAA-MBAA) NPs served as negative controls. At various time points, 100 μl samples were taken from each tube and transferred into the first row wells of a 96-well plate containing 20 μl of 0.1 N thiosulfate. The latter was added to quench the remaining chlorine on the P(MAA-MBAA)-Cl NPs and NaOCl, thus terminating the sterilization process. […] Cell growth was monitored and determined by a viable cell count.

[4] = test system: S. aureus; assay: as above; assay type: cell-based, Staphylococcus aureus
Experimental: as §1, §3, §4

[5] = test system: E. coli; assay: Consecutive bacterial loading cycles (hourly, 8 cycles); assay type: cell-based, Escherichia coli
Experimental: (§5) The cell density of E. coli and S. aureus grown overnight was normalized to 2*10^5 cells per milliliter in a twofold concentrated LB medium; then the bacteria were treated for 1 h at 37° C. under agitation (250 rpm) with equivalent volumes of either NaOCl or P(MAA-MBAA)-Cl NPs. Bacteria shaken with water served as a negative control. After 1 h of incubation, aliquots were collected and diluted serially tenfold before spotting onto LB agar plates. After an overnight incubation at 37° C. the colony forming units (CFU) were counted and used to determine cell survival. Immediately after each aliquot was removed, newly prepared bacteria were added for another hour to each of the tubes to achieve a final concentration of 10^5 CFU/ml.

[6] = test system: S. aureus; assay: as above; assay type: cell-based, Staphylococcus aureus
Experimental: as §5

[7] = test system: E. coli; assay: Stability in organic rich media (LB pre-incubation, then bacterial loading); assay type: cell-based, Escherichia coli
Experimental: (§6) 1 ml of either DDW, NaOCl or P(MAA-MBAA)-Cl NPs was mixed with 1 ml of twofold concentrated LB medium and incubated for 3 h, 5 h or 24 h. Then, E. coli or S. aureus were added to each of the solutions, reaching a final concentration of 10^5 CFU/ml and the mixture agitated for either 3 h or 24 h. At the indicated time points, samples were taken for cell viability determination and the solutions were reloaded with freshly prepared bacteria. The experiment was continued until the reagents were no longer capable of evincing toxic effects on the tested bacteria.

[8] = test system: S. aureus; assay: as above; assay type: cell-based, Staphylococcus aureus
Experimental: as §6

[9] = Kinetics of oxidative chlorine release in LB medium (NaI quenching, 292/350 nm); assay type: physicochemical; details: for % chlorinated: 1 day in LB
Experimental: Equal volumes of NaOCl or P(MAA-MBAA)-Cl NPs were incubated with equivalent volumes of twofold concentrated LB medium. The precise concentration of the oxidative chlorine found on the two reagents was determined at different time intervals via quenching with sodium iodide followed by spectrophotometer (Amersham Bioschiences) measurements at wavelengths of 292 nm and 350 nm, as previously described.
Equal volumes of NaOCl or P(MAA-MBAA)-Cl NPs were incubated with equivalent volumes of twofold concentrated LB medium. The precise concentration of the oxidative chlorine found on the two reagents was determined at different time intervals via quenching with sodium iodide followed by spectrophotometer (Amersham Bioschiences) measurements at wavelengths of 292 nm and 350 nm.

[10] = test system: E. coli; assay: Bacterial killing kinetics in the presence of antioxidants; assay type: cell-based, Escherichia coli; details: 10 mM antioxidant, 1 h pre-incubation
Experimental: (§7) Cultures of E. coli and S. aureus bacteria grown overnight were diluted in fresh twofold concentrated LB medium to obtain stock solutions with a final working concentration of 10^5 CFU/ml. […] Bacteria supplemented with distilled water or the various antioxidants served as negative controls. At various time points, 100 μl samples were taken from each tube and transferred into the first row wells of a 96-well plate containing 20 μl of 0.1 N thiosulfate. The latter was added to quench the remaining chlorine on the P(MAA-MBAA)-Cl NPs and NaOCl, thus terminating the sterilization process. Serial dilutions were carried out and the cells spotted onto LB agar plates, which were incubated at 37° C. for 20 h. Cell growth was monitored and determined by a viable cell count.

[11] = test system: S. aureus; assay: as above; assay type: cell-based, Staphylococcus aureus; details: 10 mM antioxidant, 1 h pre-incubation
Experimental: as §7

[12] = ESR spin trapping (DMPO) of ROS; details: 10 mM antioxidant
Experimental: ROS production was detected using the ESR spin trapping technique coupled with a spin trap 5,5-Dimethyl-pyrroline N-oxide (DMPO, Sigma, St. Louis, Mo.). Typically, the aqueous suspensions of NPs were added to DMPO (0.01 M), in the presence of equivalent volumes of either twofold concentrated LB medium, or each of its components (Tryptone, yeast extract, NaCl) or water. […] The solution was drawn into a 0.8 mm ID capillary quartz tube sealed at both ends with a plastic Critoseal (Thermo Fisher Scientific Inc), which was placed into a quartz tube that in turn was placed into the EPR rectangular cavity (ER 4122SHQ). The measurements were taken using a X-band Elexsys E500 EPR spectrometer (Bruker, Karlsruhe, Germany) using the following parameters: microwave power, 20 mW; scan width, 100 G; resolution, 1024; Gain, 60; sweep time, 60 s; # scans, 2; modulation frequency, 100 kHz; modulation amplitude, 1 G. In order to compare the radical intensity, the double integration (DI) of the spin adduct signal was calculated, using the Xepr 2.6b.58 acquisition version.

[13] = 10^5 CFU/ml in LB, NPs versus NaOCl
[14] = pre-incubated for 1 week with LB

OCl [NaOCl, sodium hypochlorite]
minimum inhibitory concentration (MIC) [1]: 5.6 mM oxidative Cl
minimum inhibitory concentration (MIC) [2]: 5.6 mM oxidative Cl
bacterial killing ([3]; 8 mM oxidative chlorine): Total kill
bacterial killing ([3]; 11 mM oxidative chlorine): Total kill
time to eradication of bacteria [3, 13]: ≤ 2 min
bacterial killing ([4]; 8 mM oxidative chlorine): Total kill
bacterial killing ([4]; 11 mM oxidative chlorine): Total kill
time to eradication of bacteria [4, 13]: ≤ 2 min
bacterial viability after overnight incubation following the eighth loading cycle [5]: no viable E. coli bacteria
loading cycle from which no longer able to promote bacterial killing [5]: 4 cycle
bacterial viability after overnight incubation following the eighth loading cycle [6]: able to overcome the growth inhibitory affect
loading cycle from which no longer able to promote bacterial killing [6]: 2 cycle
effect of pre-incubation with LB on bactericidal activity ([7]; 3 h pre-incubation): had no impact on their bactericidal activity
effect of pre-incubation with LB on bactericidal activity ([7]; 5 h pre-incubation): growth inhibition
time to complete killing ([7]; 5 h pre-incubation with LB): 24 h
reduction of bacteria viability ([7]; 5 h pre-incubation with LB, 3 h time point): ~4 logs
effect of pre-incubation with LB on bactericidal activity ([7]; 24 h pre-incubation): destroyed its antibacterial activity
concentration required to kill bacteria [7, 14]: 0.36 M
killing at 0.18 M [7, 14]: ineffective
effect of pre-incubation with LB on bactericidal activity ([8]; 3 h pre-incubation): did compromise its bactericidal activity
time to complete killing ([8]; 3 h pre-incubation with LB): 24 h
effect of pre-incubation with LB on bactericidal activity ([8]; 5 h pre-incubation): growth arrest
effect of pre-incubation with LB on bactericidal activity ([8]; 24 h pre-incubation): destroyed its antibacterial activity
concentration required to kill bacteria [8, 14]: 0.36 M
killing at 0.18 M [8, 14]: ineffective
NaOCl molecules sequestered by organic substances ([9]; 10 minutes of incubation in LB): ~50%
% chlorinated ([9]; measured at 292 nm): 0.9%
% chlorinated ([9]; measured at 350 nm): 0.5%

O=C1O[C@H]([C@@H](O)CO)C(O)=C1O [AA, Ascorbic acid]
effect of antioxidant pre-incubation on killing by the chlorinated NPs [10]: abolished the killing properties of the NPs
effect of antioxidant pre-incubation on killing by the chlorinated NPs [11]: abolished the killing properties of the NPs

CC(=O)N[C@@H](CS)C(=O)O [NAC, N-acetyl cysteine]
effect on formation of DMPO-OH by P(MAA-MBAA)-Cl NPs with LB [12]: completely abrogated
effect of antioxidant pre-incubation on killing by the chlorinated NPs [10]: abolished the killing properties of the NPs
effect of antioxidant pre-incubation on killing by the chlorinated NPs [11]: abolished the killing properties of the NPs
